# Results as given in publication PMC6173406, “Design and evaluation of selective butyrylcholinesterase inhibitors based on Cinchona alkaloid scaffold” (PLoS ONE, 2018).
# Like-named read-outs stand apart in the source and are kept apart here.
# Key:
# [1] = target: T1, human AChE (Homo sapiens, UniProt P22303); test: Reversible inhibition of human AChE, Ellman method with ATCh, Hunter-Downs analysis; format: biochemical; set-up: key to AChE type of inhibition: c, n and m stands for competitive, noncompetitive and mixed type of inhibition; c, n and m stands for competitive, noncompetitive and mixed type of inhibition; c, n and m stands for competitive, noncompetitive and mixed type of inhibition; details: for Ki: enzyme-inhibitor dissociation constant ± standard error, ATCh 0.050–0.50 mM, pH 7.4, 25 °C; for AChE Ks: enzyme-substrate (ATCh) dissociation constant derived from the inhibition kinetics with the compound; for AChE type of inhibition: symbol in brackets after Ki
# T1 construct: gift of Dr. F. Nachon (Département de Toxicologie, Armed Forces Biomedical Research Institute, France)
# T1 sequence (P22303 32-614): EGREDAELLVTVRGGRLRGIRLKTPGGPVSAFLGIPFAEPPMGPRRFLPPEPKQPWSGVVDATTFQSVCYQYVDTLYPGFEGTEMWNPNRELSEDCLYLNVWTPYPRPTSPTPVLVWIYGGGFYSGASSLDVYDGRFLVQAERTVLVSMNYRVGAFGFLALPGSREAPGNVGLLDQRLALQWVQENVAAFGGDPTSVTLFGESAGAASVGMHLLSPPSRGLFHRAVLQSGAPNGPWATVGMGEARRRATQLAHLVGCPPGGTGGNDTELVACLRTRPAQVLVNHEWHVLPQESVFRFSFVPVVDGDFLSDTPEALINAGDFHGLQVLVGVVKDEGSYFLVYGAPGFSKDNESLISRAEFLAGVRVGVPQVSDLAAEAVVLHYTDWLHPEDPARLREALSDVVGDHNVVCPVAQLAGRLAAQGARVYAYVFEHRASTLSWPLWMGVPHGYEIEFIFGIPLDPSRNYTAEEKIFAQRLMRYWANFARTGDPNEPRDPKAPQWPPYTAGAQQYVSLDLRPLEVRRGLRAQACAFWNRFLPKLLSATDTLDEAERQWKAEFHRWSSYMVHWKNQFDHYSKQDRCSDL
# Experimental: (§1) Purified human BChE and recombinant human AChE were kindly provided by Dr. F. Nachon (Département de Toxicologie, Armed Forces Biomedical Research Institute, France). The concentration of enzymes (BChE: 5.6 μM; AChE: 0.20 μM) was determined as described previously. The concentrated stocks of enzymes were diluted in a phosphate sodium buffer 0.1 M (pH 7.4) containing 0.1% BSA.
# (§2) Enzyme activities were measured spectrophotometrically by Ellman method at 412 nm using 0.30 mM DTNB as thiol reagent and ATCh (0.050–0.50 mM) as substrate in 0.1 M phosphate buffer, pH 7.4 [29, 30]. For the inhibition, the reaction mixture also contained cinchonidines or cinchonines (final concentrations 0.020–200 μM, depending on compound). In the case of compounds CD-(pCl) and CN-(pCl), the final content of DMSO was the same in enzyme activity measurement and in inhibition measurements, up to 0.32%. No side interactions of tested compounds with ATCh or DTNB were detected. Measurements were done at 25 °C on a Tecan Infinite M200Pro plate reader (Austria).
# (§3) The reversible inhibition of BChE and AChE by cinchonines and cinchonidines was measured by determining the decrease of enzyme activity towards ATCh (0.050–0.50 mM) in their presence. The activities of the enzymes were measured at different substrate concentrations ([S]) in the absence (v0) and presence (vi) of given cinchonines and cinchonidines concentration ([I]) selected to inhibit the enzymes for 20–80%. At least three concentrations of inhibitors for each substrate concentration were used in at least two experiments. The apparent dissociation inhibition constant (Ki,app) was calculated using the Hunter-Downs equation and the linear regression analysis: Ki,app=vi/v0−vi⋅[I]=K(I)+K(I)/K(S)⋅[S] where y-intercept determines the enzyme-inhibitor dissociation constants (K(I)), while x-intercept determines the enzyme-substrate dissociation constant, K(S). The equation was used with the assumption that the substrate, due to relatively low substrate concentrations used in experiments, binds only to the catalytic site, while inhibitor can bind to both sites catalytic and peripheral site. In other words, if the inhibitor competes with substrate for binding to the catalytic site of the enzyme, Ki,app proportionally depend on the substrate concentration. […] The curve means that the inhibitor binds not only to the catalytic or peripheral site but also to intermediates of Michaelis type of the enzyme-substrate complex.
# [2] = target: T2, human BChE (Homo sapiens, UniProt P06276); test: Reversible inhibition of human BChE, Ellman method with ATCh, Hunter-Downs analysis; format: biochemical; set-up: key to BChE type of inhibition: c, n and m stands for competitive, noncompetitive and mixed type of inhibition; c, n and m stands for competitive, noncompetitive and mixed type of inhibition; c, n and m stands for competitive, noncompetitive and mixed type of inhibition; details: for BChE Ks: enzyme-substrate (ATCh) dissociation constant derived from the inhibition kinetics with the compound; for Ki(AChE)/ Ki (BChE): inhibition selectivity, ratio of Ki constants for AChE and BChE; for BChE inhibition potency compared to CD-Met: fold more potent than CD-Met
# T2 construct: gift of Dr. F. Nachon (Département de Toxicologie, Armed Forces Biomedical Research Institute, France)
# T2 sequence (P06276 29-602): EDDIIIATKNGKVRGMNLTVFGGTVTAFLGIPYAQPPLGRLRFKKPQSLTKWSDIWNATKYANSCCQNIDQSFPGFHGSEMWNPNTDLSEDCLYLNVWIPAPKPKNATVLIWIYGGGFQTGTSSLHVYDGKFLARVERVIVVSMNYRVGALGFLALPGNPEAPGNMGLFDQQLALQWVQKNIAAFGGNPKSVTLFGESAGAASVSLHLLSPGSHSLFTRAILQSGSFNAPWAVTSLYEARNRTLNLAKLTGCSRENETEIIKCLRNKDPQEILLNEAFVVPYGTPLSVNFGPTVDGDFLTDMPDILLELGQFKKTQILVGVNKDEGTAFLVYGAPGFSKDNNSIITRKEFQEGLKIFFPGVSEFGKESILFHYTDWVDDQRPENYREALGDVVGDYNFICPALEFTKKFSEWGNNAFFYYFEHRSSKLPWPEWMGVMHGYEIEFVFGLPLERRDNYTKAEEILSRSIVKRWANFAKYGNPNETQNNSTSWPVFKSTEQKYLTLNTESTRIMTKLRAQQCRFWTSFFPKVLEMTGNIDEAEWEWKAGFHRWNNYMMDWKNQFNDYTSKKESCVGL
# Experimental: as §1, §2, §3
# [3] = enzyme-inhibitor dissociation constant ± standard error, ATCh 0.050–0.50 mM, pH 7.4, 25 °C
# [4] = ratio of Ki of cinchonine to Ki of the pseudo-enantiomeric cinchonidine
Structure (SMILES),AChE affinity lower than for the highest-affinity compounds ([1]; compared to CD-(mNO2) and CD-(mCH3)),Ki [1] [µM],"Ki [2, 3] [µM]",BChE Ks [2] [mM],Ki(AChE)/ Ki (BChE) [2],BChE type of inhibition ([2]; symbol in brackets after Ki),AChE Ks [1] [mM],AChE type of inhibition [1],BChE inhibition potency compared to CD-Met [2],"AChE stereoselectivity Ki(CN/CD) [1, 4]",Ki [2] [µM],BChE binding preference para- over meta-positioned substituent ([2]; para compound compared to meta compound) [times],"BChE stereoselectivity Ki(CN/CD) [2, 4]","BChE type of inhibition ([2]; substrate concentrations higher than 0.35 mM, deviation from linearity in Hunter-Downs plot)"
"C=C[C@H]1CN2CC[C@H]1C[C@H]2[C@H](O)c1ccnc2ccccc12 [CD, cinchonidine, reference compound]",about 160 times,> 400,28 ± 4,0.25 ± 0.05,~14,c,–,–,–,–,–,–,–,–
"C=CC1C[N+]2(Cc3cccc(Br)c3)CCC1CC2C(O)c1ccnc2ccccc12 (stereo not drawn) [CD-(mBr), N-(3-bromobenzyl) cinchonidinium bromide]",–,20 ± 1,0.6 ± 0.03,0.50 ± 0.05,33,m,0.91 ± 0.08,m,44 times,–,–,–,–,–
"C=CC1C[N+]2(Cc3cccc(C)c3)CCC1CC2C(O)c1ccnc2ccccc12 (stereo not drawn) [CD-(mCH3), N-(3-methylbenzyl) cinchonidinium bromide]",–,3 ± 0.3,0.077 ± 0.006,0.52 ± 0.08,39,m,0.63 ± 0.14,m,–,16,≤ 0.1,–,–,–
"C=CC1C[N+]2(Cc3cccc(Cl)c3)CCC1CC2C(O)c1ccnc2ccccc12 (stereo not drawn) [CD-(mCl), N-(3-chlorobenzyl) cinchonidinium chloride]",–,23 ± 1,0.24 ± 0.01,0.53 ± 0.05,95,m,0.74 ± 0.08,c,–,–,–,–,–,–
"C=CC1C[N+]2(Cc3cccc([N+](=O)[O-])c3)CCC1CC2C(O)c1ccnc2ccccc12 (stereo not drawn) [CD-(mNO2), N-(3-nitrobenzyl) cinchonidinium bromide]",–,2.5 ± 0.2,4.7 ± 0.4,0.62 ± 0.1,–,m,1.0 ± 0.2,c,only five times higher,–,–,–,–,–
"C=CC1C[N+]2(Cc3ccc(Br)cc3)CCC1CC2C(O)c1ccnc2ccccc12 (stereo not drawn) [CD-(pBr), N-para-bromobenzyl cinchonidinium bromide]",–,19 ± 1,0.038 ± 0.005,0.34 ± 0.07,510,c,2.2 ± 0.524,m,700 times,–,≤ 0.1,16,92,–
C=CC1C[N+]2(Cc3ccc(C)cc3)CCC1CC2C(O)c1ccnc2ccccc12 (stereo not drawn) [CD-(pCH3)],–,16 ± 1,0.17 ± 0.02,0.38 ± 0.06,99,m,1.3 ± 0.2,c,–,–,–,–,–,mixed inhibition
C=CC1C[N+]2(Cc3ccc(Cl)cc3)CCC1CC2C(O)c1ccnc2ccccc12 (stereo not drawn) [CD-(pCl)],–,37 ± 4,0.1 ± 0.01,0.42 ± 0.05,350,c,–,n,–,–,≤ 0.1,–,–,–
C=CC1C[N+]2(Cc3ccc([N+](=O)[O-])cc3)CCC1CC2C(O)c1ccnc2ccccc12 (stereo not drawn) [CD-(pNO2)],–,36 ± 2,6 ± 0.5,0.38 ± 0.05,5.9,c,–,n,only five times higher,–,–,–,–,–
C=CC1C[N+]2(Cc3ccccc3)CCC1CC2C(O)c1ccnc2ccccc12 (stereo not drawn) [CD-Bzl],–,15 ± 2,0.075 ± 0.007,0.27 ± 0.03,200,c,0.78 ± 0.3,m,–,–,≤ 0.1,–,–,–
